Experiment: xn = mol fraction of the nth substance listed
Details: 101.33 kPa, Liquid

CC(C)CO [2-methyl-1-propanol] + CN1CCNCC1
x1 = 1
Details	mass density [kg/m3]	viscosity [mPa·s]
293.15 K	801.58	3.994
298.15 K	798.09	3.334
303.15 K	794.09	2.794

CN1CCNCC1 [N-methylpiperazine] + CC(C)CO
Details	mass density, 293.15 K [kg/m3]	mass density, 298.15 K [kg/m3]	mass density, 303.15 K [kg/m3]	viscosity, 293.15 K [mPa·s]	viscosity, 298.15 K [mPa·s]	viscosity, 303.15 K [mPa·s]
x2 = 0	903.78	899.8	894.55	2.1	1.841	1.624
x2 = 0.0515	901.11	897.16	891.98	2.237	1.941	1.699
x2 = 0.0983	898.38	894.46	889.35	2.361	2.046	1.781
x2 = 0.1506	895.07	891.19	886.16	2.542	2.198	1.914
x2 = 0.2011	891.66	887.82	882.88	2.728	2.354	2.039
x2 = 0.2971	884.72	880.97	876.18	3.084	2.647	2.288
x2 = 0.402	876.51	872.85	868.24	3.469	2.957	2.541
x2 = 0.4982	868.29	864.71	860.24	3.838	3.249	2.785
x2 = 0.6001	858.58	855.07	850.74	4.142	3.504	2.999
x2 = 0.6995	847.72	844.25	840.04	4.382	3.693	3.151
x2 = 0.7978	835.15	831.71	827.6	4.487	3.789	3.211
x2 = 0.8995	819.74	816.28	812.25	4.423	3.708	3.116

CN1CCNCC1 [N-methylpiperazine] + CC(C)O
Details	mass density, 293.15 K [kg/m3]	mass density, 298.15 K [kg/m3]	mass density, 303.15 K [kg/m3]	viscosity, 293.15 K [mPa·s]	viscosity, 298.15 K [mPa·s]	viscosity, 303.15 K [mPa·s]
x2 = 0	903.78	899.8	894.54	2.1	1.841	1.624
x2 = 0.0998	897.99	893.98	888.87	2.261	1.967	1.733
x2 = 0.1988	891.42	887.39	882.45	2.393	2.072	1.816
x2 = 0.3003	883.75	879.73	874.96	2.502	2.162	1.891
x2 = 0.3998	875.22	871.21	866.62	2.581	2.224	1.938
x2 = 0.5	865.48	861.47	857.07	2.65	2.281	1.984
x2 = 0.5996	854.41	850.38	846.15	2.69	2.312	2.012
x2 = 0.7	841.49	837.39	833.32	2.704	2.329	2.027
x2 = 0.7991	826.48	822.27	818.3	2.678	2.309	2.008
x2 = 0.8503	817.61	813.32	809.39	2.648	2.284	1.986
x2 = 0.9003	808.06	803.69	799.79	2.615	2.25	1.954
x2 = 0.9489	797.8	793.36	789.46	2.541	2.183	1.893

CN1CCNCC1 [N-methylpiperazine] + CCCCO
Details	mass density, 293.15 K [kg/m3]	mass density, 298.15 K [kg/m3]	mass density, 303.15 K [kg/m3]	viscosity, 293.15 K [mPa·s]	viscosity, 298.15 K [mPa·s]	viscosity, 303.15 K [mPa·s]
x2 = 0	903.79	899.8	894.54	2.1	1.841	1.624
x2 = 0.0982	898.89	894.98	889.88	2.247	1.966	1.73
x2 = 0.199	893.13	889.24	884.23	2.431	2.115	1.859
x2 = 0.2966	886.88	883.01	878.11	2.631	2.283	2.002
x2 = 0.3973	879.73	875.91	871.16	2.841	2.461	2.153
x2 = 0.5001	871.61	867.85	863.29	3.018	2.615	2.284
x2 = 0.6004	862.72	859.01	854.62	3.181	2.751	2.392
x2 = 0.6995	852.72	849.01	844.76	3.261	2.832	2.471
x2 = 0.7537	846.6	842.86	838.67	3.272	2.846	2.495
x2 = 0.7936	841.74	837.97	833.81	3.258	2.841	2.486
x2 = 0.8002	840.9	837.13	832.97	3.247	2.833	2.489
x2 = 0.8419	835.38	831.58	827.45	3.218	2.812	2.473
x2 = 0.8997	827	823.16	819.05	3.145	2.756	2.427

CN1CCNCC1 [N-methylpiperazine] + CCCO
Details	mass density, 293.15 K [kg/m3]	mass density, 298.15 K [kg/m3]	mass density, 303.15 K [kg/m3]	viscosity, 293.15 K [mPa·s]	viscosity, 298.15 K [mPa·s]	viscosity, 303.15 K [mPa·s]
x2 = 0	903.79	899.8	894.54	2.1	1.841	1.624
x2 = 0.1017	899.72	895.76	890.62	2.24	1.962	1.716
x2 = 0.1987	895.17	891.23	886.21	2.369	2.058	1.809
x2 = 0.3	889.62	885.71	880.86	2.536	2.2	1.932
x2 = 0.4007	883.15	879.31	874.64	2.689	2.326	2.035
x2 = 0.4998	875.68	871.91	867.4	2.817	2.438	2.129
x2 = 0.5504	871.35	867.6	863.18	2.863	2.478	2.167
x2 = 0.6011	866.59	862.85	858.5	2.895	2.506	2.192
x2 = 0.6542	861.09	857.34	853.04	2.885	2.504	2.193
x2 = 0.7001	855.83	852.05	847.8	2.874	2.497	2.186
x2 = 0.7495	849.57	845.75	841.53	2.833	2.473	2.175
x2 = 0.7991	842.55	838.67	834.47	2.752	2.413	2.124
x2 = 0.902	825.1	821.08	816.93	2.54	2.23	1.98

CN1CCNCC1 [N-methylpiperazine] + CCO
Details	mass density, 293.15 K [kg/m3]	mass density, 298.15 K [kg/m3]	mass density, 303.15 K [kg/m3]	viscosity, 293.15 K [mPa·s]	viscosity, 298.15 K [mPa·s]	viscosity, 303.15 K [mPa·s]
x2 = 0	903.79	899.8	894.54	2.1	1.841	1.624
x2 = 0.1002	900.18	896.19	891.01	2.141	1.87	1.65
x2 = 0.1994	896.41	892.42	887.31	2.206	1.924	1.694
x2 = 0.3003	891.73	887.75	882.73	2.27	1.977	1.741
x2 = 0.3493	889.02	885.06	880.09	2.285	1.992	1.753
x2 = 0.4021	885.73	881.8	876.89	2.301	2.009	1.771
x2 = 0.451	882.31	878.41	873.55	2.288	2.001	1.764
x2 = 0.5004	878.44	874.56	869.77	2.267	1.977	1.746
x2 = 0.5994	869.22	865.36	860.68	2.175	1.909	1.698
x2 = 0.7011	857.04	853.14	848.58	1.996	1.772	1.595
x2 = 0.8003	841.28	837.28	832.81	1.779	1.591	1.429
x2 = 0.8982	820.12	815.97	811.57	1.526	1.366	1.239

CN1CCNCC1 [N-methylpiperazine] + CO
Details	mass density, 293.15 K [kg/m3]	mass density, 298.15 K [kg/m3]	mass density, 303.15 K [kg/m3]	viscosity, 293.15 K [mPa·s]	viscosity, 298.15 K [mPa·s]	viscosity, 303.15 K [mPa·s]
x2 = 0	903.8	899.8	894.52	2.1	1.841	1.624
x2 = 0.1021	902.85	899.04	893.84	2.103	1.849	1.643
x2 = 0.1999	901.87	898.08	892.86	2.147	1.897	1.692
x2 = 0.3286	899.35	895.54	890.39	2.167	1.924	1.722
x2 = 0.4143	896.64	892.82	887.8	2.141	1.897	1.676
x2 = 0.4991	892.94	889.13	884.25	2.04	1.8	1.61
x2 = 0.6016	886.48	882.68	877.91	1.875	1.654	1.475
x2 = 0.6999	876.84	873	868.21	1.62	1.447	1.299
x2 = 0.7998	860.91	856.96	851.99	1.306	1.169	1.06
x2 = 0.8999	834.46	830.26	825.04	0.935	0.854	0.788

CCCCO [butan-1-ol] + CN1CCNCC1
x1 = 1
Details	mass density [kg/m3]	viscosity [mPa·s]
293.15 K	809.97	2.938
298.15 K	806.15	2.572
303.15 K	802.14	2.271

CCO [ethanol] + CN1CCNCC1
x1 = 1
Details	mass density [kg/m3]	viscosity [mPa·s]
293.15 K	789.32	1.17
298.15 K	785.06	1.078
303.15 K	780.68	0.982

CO [methanol] + CN1CCNCC1
x1 = 1
Details	mass density [kg/m3]	viscosity [mPa·s]
293.15 K	791.09	0.593
298.15 K	786.48	0.551
303.15 K	781.22	0.509
